Literature values as cited in patent US8481599B2, “Compositions and methods for increasing compliance with therapies using aldehyde dehydrogenase inhibitors and treating alcoholism” (Tonix Pharmaceuticals Inc., priority 2001, dated 2013).
Read-outs that look alike come from different tables or passages of the source.

How the values were obtained:
ALDH-I = biological target: T1, ALDH-I (Homo sapiens, UniProt P05091)
T1 sequence (P05091 18-517): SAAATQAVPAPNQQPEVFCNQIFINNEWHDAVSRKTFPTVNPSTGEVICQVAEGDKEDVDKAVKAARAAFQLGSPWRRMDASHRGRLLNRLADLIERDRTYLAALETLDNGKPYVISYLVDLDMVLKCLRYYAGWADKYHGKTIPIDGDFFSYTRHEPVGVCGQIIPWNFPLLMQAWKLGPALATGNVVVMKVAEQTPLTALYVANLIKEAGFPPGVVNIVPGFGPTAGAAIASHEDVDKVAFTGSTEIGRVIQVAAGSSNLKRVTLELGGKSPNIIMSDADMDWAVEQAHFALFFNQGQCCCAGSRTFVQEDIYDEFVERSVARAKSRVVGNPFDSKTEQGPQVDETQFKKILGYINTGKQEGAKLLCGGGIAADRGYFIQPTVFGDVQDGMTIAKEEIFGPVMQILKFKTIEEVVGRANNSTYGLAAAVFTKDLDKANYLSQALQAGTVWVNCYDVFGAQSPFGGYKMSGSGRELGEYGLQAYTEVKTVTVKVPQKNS

[1] = rat studies
ALDH = details: rat studies
ALDH-II = biological target: T2, ALDH-II (Homo sapiens, UniProt P00352); details: in vitro
T2 sequence (P00352 1-501): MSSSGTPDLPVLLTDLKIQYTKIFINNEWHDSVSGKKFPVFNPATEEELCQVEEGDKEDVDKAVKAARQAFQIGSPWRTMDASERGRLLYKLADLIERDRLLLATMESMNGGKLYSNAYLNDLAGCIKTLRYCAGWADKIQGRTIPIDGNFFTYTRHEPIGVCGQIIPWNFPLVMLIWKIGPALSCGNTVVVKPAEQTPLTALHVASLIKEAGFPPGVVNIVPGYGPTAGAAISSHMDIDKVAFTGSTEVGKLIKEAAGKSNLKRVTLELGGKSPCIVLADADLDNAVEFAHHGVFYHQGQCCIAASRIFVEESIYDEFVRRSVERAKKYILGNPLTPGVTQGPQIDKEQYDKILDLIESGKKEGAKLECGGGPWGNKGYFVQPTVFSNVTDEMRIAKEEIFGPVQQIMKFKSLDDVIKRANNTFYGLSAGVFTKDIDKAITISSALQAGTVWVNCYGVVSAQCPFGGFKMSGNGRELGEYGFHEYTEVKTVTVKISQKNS

O=c1c(-c2ccc(O)cc2)coc2cc(O[C@@H]3O[C@H](CO)[C@@H](O)[C@H](O)[C@H]3O)ccc12 [Daidzin]
inhibition of ALDH-I (ALDH-I): selective potent reversible inhibitor

N5-(hydroxycyclopropyl)-L-glutamine [coprine]
suppression of ethanol consumption [1]: effectively suppressed ethanol consumption
potency as ALDH inhibitor relative to disulfiram (ALDH): more potent inhibitor of ALDH as compared to disulfiram

N#CN [cyanamide]
inhibition of ALDH-II (ALDH-II): unable to inhibit
inhibition of ALDH-I (ALDH-I; in vitro): unable to inhibit
